In ChEMBL document CHEMBL5352456, “Isocyanides in med chem: A scaffold hopping approach for the identification of novel 4-isocyanophenylamides as potent antibacterial agents against methicillin-resistant Staphylococcusaureus” (Eur J Med Chem, 2023):

These compounds were tested on Staphylococcus aureus (assay: Antibacterial activity against Staphylococcus aureus ATCC 29213 assessed as reduction in microbial growth measured for 16 to 20 hrs by microdilution assay). Settings: time 16-20 hrs.
Format: functional

Structure (SMILES)	MIC [µM]
[C-]#[N+]c1ccc(NC(=O)Cc2ccc(Cl)cc2)cc1	8
[C-]#[N+]c1ccc(NC(=O)CCc2ccccc2)cc1	8
[C-]#[N+]c1ccc(NC(=O)CC(C)C)cc1	> 8
[C-]#[N+]c1ccc(NC(=O)Cc2c(Cl)cccc2Cl)cc1	> 8
[C-]#[N+]c1ccc(NC(=O)CCC2CCCC2)cc1	8
[C-]#[N+]c1ccc(NC(=O)Cc2ccc([N+](=O)[O-])cc2)cc1	8
[C-]#[N+]c1ccc(NC(=O)Cc2cccc(OC)c2)cc1	8
[C-]#[N+]c1ccc(NC(=O)Cc2ccncc2)cc1	> 8
[C-]#[N+]c1ccc(NC(=O)Cc2cc(OC)c(OC)c(OC)c2)cc1	> 8

These compounds were tested on Staphylococcus aureus (assay: Antibacterial activity against methicillin-resistant Staphylococcus aureus ATCC 43300 assessed as reduction in microbial growth measured for 16 to 20 hrs by microdilution assay). Settings: time 16-20 hrs.
Format: functional

Structure (SMILES)	MIC [µM]
[C-]#[N+]c1ccc(NC(=O)Cc2ccc(Cl)cc2)cc1	4
[C-]#[N+]c1ccc(NC(=O)CCc2ccccc2)cc1	8
[C-]#[N+]c1ccc(NC(=O)CCC2CCCC2)cc1	8
[C-]#[N+]c1ccc(NC(=O)Cc2ccc([N+](=O)[O-])cc2)cc1	4
[C-]#[N+]c1ccc(NC(=O)Cc2cccc(OC)c2)cc1	8

The compounds below were run on Staphylococcus epidermidis (assay: Antibacterial activity against Staphylococcus epidermidis ATCC 12228 assessed as reduction in microbial growth measured for 16 to 20 hrs by microdilution assay). Settings: time 16-20 hrs.
Format: functional

Structure (SMILES)	MIC [µM]
[C-]#[N+]c1ccc(NC(=O)Cc2ccc(Cl)cc2)cc1	0.5
[C-]#[N+]c1ccc(NC(=O)CCc2ccccc2)cc1	2
[C-]#[N+]c1ccc(NC(=O)CCC2CCCC2)cc1	1
[C-]#[N+]c1ccc(NC(=O)Cc2ccc([N+](=O)[O-])cc2)cc1	1
[C-]#[N+]c1ccc(NC(=O)Cc2cccc(OC)c2)cc1	2

Each compound was assayed on Staphylococcus epidermidis (assay: Antibacterial activity against Staphylococcus epidermidis ATCC 49134 assessed as reduction in microbial growth measured for 16 to 20 hrs by microdilution assay). Settings: time 16-20 hrs.
Format: functional

Structure (SMILES)	MIC [µM]
[C-]#[N+]c1ccc(NC(=O)Cc2ccc(Cl)cc2)cc1	0.25
[C-]#[N+]c1ccc(NC(=O)CCc2ccccc2)cc1	2
[C-]#[N+]c1ccc(NC(=O)CCC2CCCC2)cc1	2
[C-]#[N+]c1ccc(NC(=O)Cc2ccc([N+](=O)[O-])cc2)cc1	0.5
[C-]#[N+]c1ccc(NC(=O)Cc2cccc(OC)c2)cc1	2

Each compound was assayed on Klebsiella pneumoniae (assay: Antibacterial activity against Klebsiella pneumoniae ATCC 700603 assessed as inhibition of bacterial growth measured for 16 to 20 hrs by microdilution assay). Settings: time 16-20 hrs.
Format: functional

Structure (SMILES)	MIC [µM]
[C-]#[N+]c1ccc(NC(=O)Cc2ccc(Cl)cc2)cc1	≥ 64
[C-]#[N+]c1ccc(NC(=O)CCc2ccccc2)cc1	≥ 64
[C-]#[N+]c1ccc(NC(=O)CC(C)C)cc1	≥ 64
[C-]#[N+]c1ccc(NC(=O)Cc2c(Cl)cccc2Cl)cc1	≥ 64
[C-]#[N+]c1ccc(NC(=O)CCC2CCCC2)cc1	≥ 64
[C-]#[N+]c1ccc(NC(=O)Cc2ccc([N+](=O)[O-])cc2)cc1	≥ 64
[C-]#[N+]c1ccc(NC(=O)Cc2cccc(OC)c2)cc1	≥ 64
[C-]#[N+]c1ccc(NC(=O)Cc2ccncc2)cc1	≥ 64
[C-]#[N+]c1ccc(NC(=O)Cc2cc(OC)c(OC)c(OC)c2)cc1	≥ 64

What follows are compounds tested on Staphylococcus epidermidis (assay: Antibacterial activity against Staphylococcus epidermidis ATCC 35984 assessed as reduction in microbial growth measured for 16 to 20 hrs by microdilution assay). Settings: time 16-20 hrs.
Format: functional

Structure (SMILES)	MIC [µM]
[C-]#[N+]c1ccc(NC(=O)Cc2ccc(Cl)cc2)cc1	0.25
[C-]#[N+]c1ccc(NC(=O)CCc2ccccc2)cc1	1
[C-]#[N+]c1ccc(NC(=O)CCC2CCCC2)cc1	1
[C-]#[N+]c1ccc(NC(=O)Cc2ccc([N+](=O)[O-])cc2)cc1	0.5
[C-]#[N+]c1ccc(NC(=O)Cc2cccc(OC)c2)cc1	2

The compounds below were run on Staphylococcus aureus (assay: Antibacterial activity against Staphylococcus aureus ATCC 6538 assessed as reduction in microbial growth measured for 16 to 20 hrs by microdilution assay). Settings: time 16-20 hrs.
Format: functional

Structure (SMILES)	MIC [µM]
[C-]#[N+]c1ccc(NC(=O)Cc2ccc(Cl)cc2)cc1	8
[C-]#[N+]c1ccc(NC(=O)CCc2ccccc2)cc1	8
[C-]#[N+]c1ccc(NC(=O)CC(C)C)cc1	> 8
[C-]#[N+]c1ccc(NC(=O)Cc2c(Cl)cccc2Cl)cc1	> 8
[C-]#[N+]c1ccc(NC(=O)CCC2CCCC2)cc1	8
[C-]#[N+]c1ccc(NC(=O)Cc2ccc([N+](=O)[O-])cc2)cc1	8
[C-]#[N+]c1ccc(NC(=O)Cc2cccc(OC)c2)cc1	8
[C-]#[N+]c1ccc(NC(=O)Cc2ccncc2)cc1	> 8
[C-]#[N+]c1ccc(NC(=O)Cc2cc(OC)c(OC)c(OC)c2)cc1	> 8

What follows are compounds tested on Staphylococcus aureus (assay: Antibacterial activity against Staphylococcus aureus ATCC 25923 assessed as reduction in microbial growth measured for 16 to 20 hrs by microdilution assay). Settings: time 16-20 hrs.
Format: functional

Structure (SMILES)	MIC [µM]
[C-]#[N+]c1ccc(NC(=O)Cc2ccc(Cl)cc2)cc1	2
[C-]#[N+]c1ccc(NC(=O)CCc2ccccc2)cc1	4
[C-]#[N+]c1ccc(NC(=O)CC(C)C)cc1	> 8
[C-]#[N+]c1ccc(NC(=O)Cc2c(Cl)cccc2Cl)cc1	> 8
[C-]#[N+]c1ccc(NC(=O)CCC2CCCC2)cc1	4
[C-]#[N+]c1ccc(NC(=O)Cc2ccc([N+](=O)[O-])cc2)cc1	2
[C-]#[N+]c1ccc(NC(=O)Cc2cccc(OC)c2)cc1	4
[C-]#[N+]c1ccc(NC(=O)Cc2ccncc2)cc1	> 8
[C-]#[N+]c1ccc(NC(=O)Cc2cc(OC)c(OC)c(OC)c2)cc1	> 8

Each compound was assayed on Pseudomonas aeruginosa (assay: Antibacterial activity against Pseudomonas aeruginosa ATCC 10145 assessed as inhibition of bacterial growth measured for 16 to 20 hrs by microdilution assay). Settings: time 16-20 hrs.
Format: functional

Structure (SMILES)	MIC [µM]
[C-]#[N+]c1ccc(NC(=O)Cc2ccc(Cl)cc2)cc1	≥ 64
[C-]#[N+]c1ccc(NC(=O)CCc2ccccc2)cc1	≥ 64
[C-]#[N+]c1ccc(NC(=O)CC(C)C)cc1	≥ 64
[C-]#[N+]c1ccc(NC(=O)Cc2c(Cl)cccc2Cl)cc1	≥ 64
[C-]#[N+]c1ccc(NC(=O)CCC2CCCC2)cc1	≥ 64
[C-]#[N+]c1ccc(NC(=O)Cc2ccc([N+](=O)[O-])cc2)cc1	≥ 64
[C-]#[N+]c1ccc(NC(=O)Cc2cccc(OC)c2)cc1	≥ 64
[C-]#[N+]c1ccc(NC(=O)Cc2ccncc2)cc1	≥ 64
[C-]#[N+]c1ccc(NC(=O)Cc2cc(OC)c(OC)c(OC)c2)cc1	≥ 64

Each compound was assayed on Staphylococcus aureus (assay: Antibacterial activity against methicillin-resistant Staphylococcus aureus ATCC 33592 assessed as reduction in microbial growth measured for 16 to 20 hrs by microdilution assay). Settings: time 16-20 hrs.
Format: functional

Structure (SMILES)	MIC [µM]
[C-]#[N+]c1ccc(NC(=O)Cc2ccc(Cl)cc2)cc1	8
[C-]#[N+]c1ccc(NC(=O)CCc2ccccc2)cc1	> 8
[C-]#[N+]c1ccc(NC(=O)CCC2CCCC2)cc1	8
[C-]#[N+]c1ccc(NC(=O)Cc2ccc([N+](=O)[O-])cc2)cc1	8
[C-]#[N+]c1ccc(NC(=O)Cc2cccc(OC)c2)cc1	8

What follows are compounds tested on Escherichia coli (assay: Antibacterial activity against Escherichia coli ATCC 25922 assessed as inhibition of bacterial growth measured for 16 to 20 hrs by microdilution assay). Settings: time 16-20 hrs.
Format: functional

Structure (SMILES)	MIC [µM]
[C-]#[N+]c1ccc(NC(=O)Cc2ccc(Cl)cc2)cc1	≥ 64
[C-]#[N+]c1ccc(NC(=O)CCc2ccccc2)cc1	≥ 64
[C-]#[N+]c1ccc(NC(=O)CC(C)C)cc1	≥ 64
[C-]#[N+]c1ccc(NC(=O)Cc2c(Cl)cccc2Cl)cc1	≥ 64
[C-]#[N+]c1ccc(NC(=O)CCC2CCCC2)cc1	≥ 64
[C-]#[N+]c1ccc(NC(=O)Cc2ccc([N+](=O)[O-])cc2)cc1	≥ 64
[C-]#[N+]c1ccc(NC(=O)Cc2cccc(OC)c2)cc1	≥ 64
[C-]#[N+]c1ccc(NC(=O)Cc2ccncc2)cc1	≥ 64
[C-]#[N+]c1ccc(NC(=O)Cc2cc(OC)c(OC)c(OC)c2)cc1	≥ 64
